From patent publication US10538555B2, “Macrocyclic inhibitors of the PD-1/PD-L1 and CD80(B7-1)/PD-L1 protein/protein interactions” (BRISTOL-MYERS SQUIBB COMPANY, priority 2014, dated 2020)
*1 amine or outer side, *2 acyl side, *3 side chain or, on linkers, in order; H or OH if unused. Where a SMILES comes first, the peptide text is derived from it. Bridges are numbered along the chain shown (N, C = ends). [ ]: non-standard residue; d: D form. ξ: configuration not given here. Trp(1-CH2COOH) = N[C@@H](Cc1cn(CC(=O)O)c2ccccc12)C(=O)O; Morpholine(3S-CO,6,6-Me2) = CC1(C)CN[C@H](C(=O)O)CO1; Phe(3,4,5-F3) = N[C@@H](Cc1cc(F)c(F)c(F)c1)C(=O)O; Phe(3,4-F2) = N[C@@H](Cc1ccc(F)c(F)c1)C(=O)O; NMePhe(4-F) = CN[C@@H](Cc1ccc(F)cc1)C(=O)O; d(cisHyp) = O=C(O)[C@H]1C[C@@H](O)CN1; Hyp = O=C(O)[C@@H]1C[C@@H](O)CN1; NMeF = CN[C@@H](Cc1ccccc1)C(=O)O; X1 = O=C([C@H]1COCCN1[*:1])[*:2]; dNMeF = CN[C@H](Cc1ccccc1)C(=O)O; 3Pal = N[C@@H](Cc1cccnc1)C(=O)O; dHyp = O=C(O)[C@H]1C[C@H](O)CN1; NMeNle = CCCC[C@H](NC)C(=O)O; Pip = O=C(O)[C@@H]1CCCCN1; dPip = O=C(O)[C@H]1CCCCN1; hSer = N[C@@H](CCO)C(=O)O; NMeA = CN[C@@H](C)C(=O)O; Orn = NCCC[C@H](N)C(=O)O; dNMeA = CN[C@H](C)C(=O)O; dThz = O=C(O)[C@H]1CSCN1; Dab = NCC[C@H](N)C(=O)O; Dap = NC[C@H](N)C(=O)O; ξC = NC(CS)C(=O)O; Sar = CNCC(=O)O

Biological target: T1, Human PD-L1/PD-1 (Homo sapiens, UniProt Q9NZQ7)
T1 construct: TVMV protease cleavage site (C); made in house; host or cells: HEK293T cells
Experiment: HTRF Human PD-L1/PD-1 binding assay (PD-1-Ig/PD-L1-His)
Settings: PD-L1-His 10 nM, PD-1-Ig 20 nM; class symbol; read-out: HTRF Human PD-L1/PD-1 Binding Assay IC50 Range
Outline: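 Compound preincubated 15 min with PD-L1-His (10 nM final), then PD-1-Ig (20 nM final) added for 15 min in dPBS with 0.1% BSA and 0.05% Tween-20. Detection by Eu-cryptate anti-Ig (1 nM) and APC anti-His (20 nM) after 30 min; 665/620 nm HTRF ratio. Proteins expressed in HEK293T.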

T1 sequence (Q9NZQ7 with tags, fused parts or gaps): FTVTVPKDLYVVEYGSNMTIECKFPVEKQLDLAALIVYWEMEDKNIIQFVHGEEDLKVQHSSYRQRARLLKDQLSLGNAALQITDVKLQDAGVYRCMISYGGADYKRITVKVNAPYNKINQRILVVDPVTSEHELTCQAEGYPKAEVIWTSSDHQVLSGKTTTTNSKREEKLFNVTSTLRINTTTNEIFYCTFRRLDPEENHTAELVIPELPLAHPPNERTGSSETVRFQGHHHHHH

SMILES | IC50 [nM]
CCCC[C@H]1C(=O)N(C)[C@H](C)C(=O)N[C@@H](CC(=O)O)C(=O)N[C@@H](C(C)C)C(=O)N(C)[C@@H](Cc2ccccc2)C(=O)N[C@@H](Cc2ccc(O)cc2)C(=O)N(C)[C@H](C)C(=O)N[C@@H](Cc2c[nH]c3ccccc23)C(=O)N[C@@H](Cc2ccc(O)cc2)C(=O)N[C@@H](CC(C)C)C(=O)N[C@H](C(=O)NCC(N)=O)CSCC(=O)N[C@@H](Cc2cc(F)c(F)c(F)c2)C(=O)N(C)[C@@H](Cc2ccccc2)C(=O)N1C [Example 3224] ({CH2CO}-[Phe(3,4,5-F3)][NMeF][NMeNle][dNMeA]DV[NMeF]Y[dNMeA]WYLCG-NH2; thioether N-13) | 10 to 99.9
CCCC[C@H]1C(=O)N(C)[C@@H](CCCC)C(=O)N[C@@H](CCC(=O)O)C(=O)N[C@H](C(=O)NCC(N)=O)CSCC(=O)N[C@@H](Cc2ccc(O)cc2)C(=O)N(C)[C@@H](C)C(=O)N[C@@H](CC(N)=O)C(=O)N2CCC[C@H]2C(=O)N[C@@H](CN)C(=O)N[C@@H](CCC(=O)O)C(=O)N2C[C@H](O)C[C@H]2C(=O)N[C@@H](Cc2c[nH]c3ccccc23)C(=O)N[C@@H](CCC(=O)O)C(=O)N[C@@H](Cc2c[nH]c3ccccc23)C(=O)N1C [Example 5243] ({CH2CO}-Y[NMeA]NP[Dap]E[Hyp]WEW[NMeNle][NMeNle]ECG-NH2; thioether N-14) | 100 to 990
CCCC[C@H]1C(=O)N(C)CC(=O)N[C@@H](CC(=O)O)C(=O)N[C@@H](C(C)C)C(=O)N(C)[C@@H](Cc2ccccc2)C(=O)N[C@@H](Cc2ccc(O)cc2)C(=O)N(C)CC(=O)N[C@@H](Cc2c[nH]c3ccccc23)C(=O)N[C@@H](Cc2ccc(O)cc2)C(=O)N[C@@H](CC(C)C)C(=O)N[C@H](C(=O)NCC(N)=O)CSCC(=O)N[C@@H](Cc2cccnc2)C(=O)N(C)[C@@H](Cc2ccccc2)C(=O)N1C [Example 3243] ({CH2CO}-[3Pal][NMeF][NMeNle][Sar]DV[NMeF]Y[Sar]WYLCG-NH2; thioether N-13) | 10 to 99.9
CCCC[C@H]1C(=O)N(C)[C@@H](CCCC)C(=O)N[C@@H](C)C(=O)N[C@H](C(=O)NCC(N)=O)CSCC(=O)N[C@@H](Cc2ccc(O)cc2)C(=O)N2CC(C)(C)OC[C@H]2C(=O)N[C@@H](CC(N)=O)C(=O)N2CCC[C@H]2C(=O)N[C@@H](CN)C(=O)N[C@@H](CCC(N)=O)C(=O)N2C[C@H](O)C[C@H]2C(=O)N[C@@H](Cc2c[nH]c3ccccc23)C(=O)N[C@@H](CO)C(=O)N[C@@H](Cc2c[nH]c3ccccc23)C(=O)N1C [Example 1281] ({CH2CO}-Y[Morpholine(3S-CO,6,6-Me2)]NP[Dap]Q[Hyp]WSW[NMeNle][NMeNle]ACG-NH2; thioether N-14) | 1 to 9.9
CCCC[C@H]1C(=O)N(C)[C@@H](CCCC)C(=O)N[C@@H](CCCNC(=N)N)C(=O)NC(C(=O)NCC(N)=O)CSCC(=O)N[C@@H](Cc2ccc(O)cc2)C(=O)N(C)[C@@H](C)C(=O)N[C@@H](Cc2cnc[nH]2)C(=O)N2CCC[C@H]2C(=O)N[C@@H](CC(N)=O)C(=O)N[C@@H](CC(C)C)C(=O)N2CCC[C@H]2C(=O)N[C@@H](Cc2c[nH]c3ccccc23)C(=O)N[C@@H](CO)C(=O)N[C@@H](Cc2c[nH]c3ccccc23)C(=O)N1C (stereo partly drawn) [Example 9144] ({CH2CO}-Y[NMeA]HPNLPWSW[NMeNle][NMeNle]R[ξC]G-NH2; thioether N-14) | 1 to 9.9
CCCC[C@H]1C(=O)N2CCC[C@@H]2C(=O)N[C@@H](CC(=O)O)C(=O)N[C@@H](C(C)C)C(=O)N(C)[C@@H](Cc2ccccc2)C(=O)N[C@@H](CC(=O)O)C(=O)N2CCCC[C@@H]2C(=O)N[C@@H](Cc2c[nH]c3ccccc23)C(=O)N[C@@H](Cc2ccc(O)cc2)C(=O)N[C@@H](CC(N)=O)C(=O)N[C@H](C(=O)NCC(N)=O)CSCC(=O)N[C@@H](Cc2cc(F)c(F)c(F)c2)C(=O)N(C)[C@@H](Cc2ccc(F)cc2)C(=O)N1C [Example 10574] ({CH2CO}-[Phe(3,4,5-F3)][NMePhe(4-F)][NMeNle][dP]DV[NMeF]D[dPip]WYNCG-NH2; thioether N-13) | 1 to 9.9
CCCC[C@H]1C(=O)N(C)[C@@H](CCCC)C(=O)N[C@@H](CC(=O)O)C(=O)N[C@H](C(=O)NCC(N)=O)CSCC(=O)N[C@@H](Cc2ccc(O)cc2)C(=O)N2CCCC[C@H]2C(=O)N[C@@H](CC(=O)O)C(=O)N2CCC[C@H]2C(=O)N[C@@H](Cc2cnc[nH]2)C(=O)N[C@@H](CCCCN)C(=O)N2C[C@H](O)C[C@H]2C(=O)N[C@@H](Cc2c[nH]c3ccccc23)C(=O)N[C@@H](CCCCN)C(=O)N[C@@H](Cc2c[nH]c3ccccc23)C(=O)N1C [Example 1259] ({CH2CO}-Y[Pip]DPHK[Hyp]WKW[NMeNle][NMeNle]DCG-NH2; thioether N-14) | 1 to 9.9
CCCC[C@H]1C(=O)N2CCC[C@@H]2C(=O)N[C@@H](CO)C(=O)N[C@@H](C)C(=O)N(C)[C@@H](Cc2ccccc2)C(=O)N[C@@H](Cc2ccc(O)cc2)C(=O)N2CCCC[C@@H]2C(=O)N[C@@H](Cc2c[nH]c3ccccc23)C(=O)N[C@@H](Cc2ccc(O)cc2)C(=O)N[C@@H](CC(C)C)C(=O)N[C@H](C(=O)NCC(N)=O)CSCC(=O)N[C@@H](Cc2ccccc2)C(=O)N(C)[C@@H](Cc2ccccc2)C(=O)N1C [Example 10056] ({CH2CO}-F[NMeF][NMeNle][dP]SA[NMeF]Y[dPip]WYLCG-NH2; thioether N-13) | 100 to 990
CCCC[C@H]1C(=O)N(C)[C@@H](CCCC)C(=O)N[C@@H](CCCNC(=N)N)C(=O)N[C@H](C(=O)NCC(N)=O)CSCC(=O)N[C@@H](Cc2ccc(O)cc2)C(=O)N(C)[C@@H](C)C(=O)N[C@@H](CC(N)=O)C(=O)N2CCC[C@H]2C(=O)N[C@@H](Cc2cnc[nH]2)C(=O)N[C@@H](CO)C(=O)N2C[C@H](O)C[C@H]2C(=O)N[C@@H](Cc2c[nH]c3ccccc23)C(=O)N[C@@H](CO)C(=O)N[C@@H](Cc2cn(CC(=O)O)c3ccccc23)C(=O)N1C [Example 6202] ({CH2CO}-Y[NMeA]NPHS[Hyp]WS[Trp(1-CH2COOH)][NMeNle][NMeNle]RCG-NH2; thioether N-14) | 10 to 99.9

Now from value to compound:

IC50 [nM] | SMILES
1 to 9.9 | CCCC[C@H]1C(=O)N2C[C@@H](O)C[C@@H]2C(=O)N[C@@H](CC(=O)O)C(=O)N[C@@H](C(C)C)C(=O)N(C)[C@H](Cc2ccccc2)C(=O)N[C@@H](Cc2ccc(O)cc2)C(=O)N2C[C@@H](O)C[C@@H]2C(=O)N[C@@H](Cc2c[nH]c3ccccc23)C(=O)N[C@@H](Cc2ccc(O)cc2)C(=O)N[C@@H](CCCN)C(=O)N[C@H](C(=O)NCC(N)=O)CSCC(=O)N[C@@H](Cc2ccc(F)c(F)c2)C(=O)N(C)[C@@H](Cc2ccccc2)C(=O)N1C [Example 9232] ({CH2CO}-[Phe(3,4-F2)][NMeF][NMeNle][dHyp]DV[dNMeF]Y[dHyp]WY[Orn]CG-NH2; thioether N-13)
1 to 9.9 | CCCC[C@H]1C(=O)N2C[C@H](O)C[C@@H]2C(=O)N[C@@H](CC(=O)O)C(=O)N[C@@H](C(C)C)C(=O)N(C)[C@@H](Cc2ccccc2)C(=O)N[C@@H](CCC(=O)O)C(=O)N2CSC[C@@H]2C(=O)N[C@@H](Cc2c[nH]c3ccccc23)C(=O)N[C@@H](Cc2ccc(O)cc2)C(=O)N[C@@H](CC(C)C)C(=O)N[C@H](C(=O)NCC(N)=O)CSCC(=O)N[C@@H](Cc2cc(F)c(F)c(F)c2)C(=O)N(C)[C@@H](Cc2ccccc2)C(=O)N1C [Example 10148] ({CH2CO}-[Phe(3,4,5-F3)][NMeF][NMeNle][d(cisHyp)]DV[NMeF]E[dThz]WYLCG-NH2; thioether N-13)
10 to 99.9 | CCCC[C@H]1C(=O)N2CCOC[C@@H]2C(=O)N[C@@H](CC(=O)O)C(=O)N[C@@H](C(C)C)C(=O)N(C)[C@@H](Cc2ccccc2)C(=O)N[C@@H](CCCN)C(=O)N2C[C@H](O)C[C@@H]2C(=O)N[C@@H](Cc2c[nH]c3ccccc23)C(=O)N[C@@H](Cc2ccc(O)cc2)C(=O)N[C@@H](CCOC)C(=O)N[C@H](C(=O)NCC(N)=O)CSCC(=O)N[C@@H](Cc2cc(F)c(F)c(F)c2)C(=O)N(C)[C@@H](Cc2ccccc2)C(=O)N1C [Example 10184] ({CH2CO}-[Phe(3,4,5-F3)][NMeF][NMeNle][X1]DV[NMeF][Orn][d(cisHyp)]WY[hSer](Me)CG-NH2; thioether N-13)
1 to 9.9 | CCCC[C@H]1C(=O)N2C[C@H](O)C[C@@H]2C(=O)N[C@@H](CC(=O)O)C(=O)N[C@@H](C(C)C)C(=O)N(C)[C@@H](Cc2ccccc2)C(=O)N[C@@H](CCN)C(=O)N2C[C@H](O)C[C@@H]2C(=O)N[C@@H](Cc2c[nH]c3ccccc23)C(=O)N[C@@H](Cc2ccc(O)cc2)C(=O)N[C@@H](CC(C)C)C(=O)N[C@H](C(=O)NCC(N)=O)CSCC(=O)N[C@@H](Cc2ccc(F)c(F)c2)C(=O)N(C)[C@@H](Cc2ccccc2)C(=O)N1C [Example 9298] ({CH2CO}-[Phe(3,4-F2)][NMeF][NMeNle][d(cisHyp)]DV[NMeF][Dab][d(cisHyp)]WYLCG-NH2; thioether N-13)
1 to 9.9 | CCCC[C@H]1C(=O)N2C[C@H](O)C[C@@H]2C(=O)N[C@@H](CC(=O)O)C(=O)N[C@@H](C(C)C)C(=O)N(C)[C@@H](Cc2ccccc2)C(=O)N[C@@H](CC(N)=O)C(=O)N2C[C@H](O)C[C@@H]2C(=O)N[C@@H](Cc2c[nH]c3ccccc23)C(=O)N[C@@H](Cc2ccc(O)cc2)C(=O)N[C@@H](CCCCN)C(=O)N[C@H](C(=O)NCC(N)=O)CSCC(=O)N[C@@H](Cc2cc(F)c(F)c(F)c2)C(=O)N(C)[C@@H](Cc2ccccc2)C(=O)N1C [Example 9362] ({CH2CO}-[Phe(3,4,5-F3)][NMeF][NMeNle][d(cisHyp)]DV[NMeF]N[d(cisHyp)]WYKCG-NH2; thioether N-13)

Same assay, conditions: PD-L1-His 10 nM, PD-1-Ig 20 nM; read-out: HTRF Human PD-L1/PD-1 Binding Assay IC50

IC50 [nM] | SMILES
1000 | CCCC[C@H]1C(=O)N(C)[C@@H](CCCC)C(=O)N[C@@H](CN)C(=O)N[C@H](C(=O)NCC(N)=O)CSCC(=O)N[C@@H](Cc2ccc(O)cc2)C(=O)N(C)[C@@H](C)C(=O)N[C@@H](CC(N)=O)C(=O)N2CCC[C@H]2C(=O)N[C@@H](Cc2c[nH]cn2)C(=O)N[C@@H](CCC(N)=O)C(=O)N2C[C@H](O)C[C@H]2C(=O)N[C@@H](Cc2c[nH]c3ccccc23)C(=O)N[C@@H](CCN)C(=O)N[C@@H](Cc2cn(CC(=O)O)c3ccccc23)C(=O)N1C [Example 5222] ({CH2CO}-Y[NMeA]NPHQ[Hyp]W[Dab][Trp(1-CH2COOH)][NMeNle][NMeNle][Dap]CG-NH2; thioether N-14)
